# Experimental data reported in patent publication US20090270394A1, “CYCLYLAMINE DERIVATIVES AS CALCIUM CHANNEL BLOCKERS” (priority 2008, published 2009).
# Target: T1, Human Cav2.2 channels (Homo sapiens, UniProt Q00975)
# T1 construct: expressed in transfected cells
# Assay: Fluorescent assay for Cav2.2 channels using potassium depolarization to initiate channel opening
# Format: cell-based
# Details: for inhibition at 10 µM: 10 μM compound, read-out: Cav 2.2 Activity % Inh at 10 μM; for inhibition at 30 µM: 30 μM compound, read-out: Cav 2.2 Activity % Inh at 30 μM; for IC50: 30 mM K (block of open and inactivated channels), read-out: Cav 2.2 Activity IC50 at 30 mM K
# Text: Human Cav2.2 channels were stably expressed in HEK293 cells along with alpha2-delta and beta subunits of voltage-gated calcium channels. An inwardly rectifying potassium channel (Kir2.3) was also expressed in these cells to allow more precise control of the cell membrane potential by extracellular potassium concentration. At low bath potassium concentration, the membrane potential is relatively negative, and is depolarized as the bath potassium concentration is raised. In this way, the bath potassium concentration can be used to regulate the voltage-dependent conformations of the channels. […] After the incubation period, Cav2.2 channel opening is triggered by addition of higher concentration of potassium (70 mM final concentration) to further depolarize the cell. The degree of state-dependent block can be estimated from the inhibitory potency of compounds after incubation in different potassium concentrations.
# Calcium influx through Cav2.2 channels is determined using a calcium sensitive fluorescent dye in combination with a fluorescent plate reader. Fluorescent changes were measured with either a VIPR (Aurora Instruments) or FLIPR (Molecular Devices) plate reader.
# • 1. Seed cells in Poly-D-Lysine Coated 96 or 384-well plate and keep in a 37° C.-10% CO2 incubator overnight • 2. […] Incubate in the dark at 25° C. for 60-70 min • 5. Remove dye, wash cells with 0.1 mL (96-well plate) or 0.06 mL (384-well plate) of 4, 12, 25, or 30 mM Potassium Pre-polarization Buffer (PPB) • 6. […] Incubate in the dark at 25° C. for 30 min • 8. Read cell plate on VIPR instrument, Excitation=480 nm, Emission=535 nm • 9. With VIPR continuously reading, add 0.1 mL (96-well plate) or 0.03 mL (384-well plate) of Depolarization Buffer (DB), which is 2× the final assay concentration, to the cell plate.
# T1 sequence (Q00975 whole entry): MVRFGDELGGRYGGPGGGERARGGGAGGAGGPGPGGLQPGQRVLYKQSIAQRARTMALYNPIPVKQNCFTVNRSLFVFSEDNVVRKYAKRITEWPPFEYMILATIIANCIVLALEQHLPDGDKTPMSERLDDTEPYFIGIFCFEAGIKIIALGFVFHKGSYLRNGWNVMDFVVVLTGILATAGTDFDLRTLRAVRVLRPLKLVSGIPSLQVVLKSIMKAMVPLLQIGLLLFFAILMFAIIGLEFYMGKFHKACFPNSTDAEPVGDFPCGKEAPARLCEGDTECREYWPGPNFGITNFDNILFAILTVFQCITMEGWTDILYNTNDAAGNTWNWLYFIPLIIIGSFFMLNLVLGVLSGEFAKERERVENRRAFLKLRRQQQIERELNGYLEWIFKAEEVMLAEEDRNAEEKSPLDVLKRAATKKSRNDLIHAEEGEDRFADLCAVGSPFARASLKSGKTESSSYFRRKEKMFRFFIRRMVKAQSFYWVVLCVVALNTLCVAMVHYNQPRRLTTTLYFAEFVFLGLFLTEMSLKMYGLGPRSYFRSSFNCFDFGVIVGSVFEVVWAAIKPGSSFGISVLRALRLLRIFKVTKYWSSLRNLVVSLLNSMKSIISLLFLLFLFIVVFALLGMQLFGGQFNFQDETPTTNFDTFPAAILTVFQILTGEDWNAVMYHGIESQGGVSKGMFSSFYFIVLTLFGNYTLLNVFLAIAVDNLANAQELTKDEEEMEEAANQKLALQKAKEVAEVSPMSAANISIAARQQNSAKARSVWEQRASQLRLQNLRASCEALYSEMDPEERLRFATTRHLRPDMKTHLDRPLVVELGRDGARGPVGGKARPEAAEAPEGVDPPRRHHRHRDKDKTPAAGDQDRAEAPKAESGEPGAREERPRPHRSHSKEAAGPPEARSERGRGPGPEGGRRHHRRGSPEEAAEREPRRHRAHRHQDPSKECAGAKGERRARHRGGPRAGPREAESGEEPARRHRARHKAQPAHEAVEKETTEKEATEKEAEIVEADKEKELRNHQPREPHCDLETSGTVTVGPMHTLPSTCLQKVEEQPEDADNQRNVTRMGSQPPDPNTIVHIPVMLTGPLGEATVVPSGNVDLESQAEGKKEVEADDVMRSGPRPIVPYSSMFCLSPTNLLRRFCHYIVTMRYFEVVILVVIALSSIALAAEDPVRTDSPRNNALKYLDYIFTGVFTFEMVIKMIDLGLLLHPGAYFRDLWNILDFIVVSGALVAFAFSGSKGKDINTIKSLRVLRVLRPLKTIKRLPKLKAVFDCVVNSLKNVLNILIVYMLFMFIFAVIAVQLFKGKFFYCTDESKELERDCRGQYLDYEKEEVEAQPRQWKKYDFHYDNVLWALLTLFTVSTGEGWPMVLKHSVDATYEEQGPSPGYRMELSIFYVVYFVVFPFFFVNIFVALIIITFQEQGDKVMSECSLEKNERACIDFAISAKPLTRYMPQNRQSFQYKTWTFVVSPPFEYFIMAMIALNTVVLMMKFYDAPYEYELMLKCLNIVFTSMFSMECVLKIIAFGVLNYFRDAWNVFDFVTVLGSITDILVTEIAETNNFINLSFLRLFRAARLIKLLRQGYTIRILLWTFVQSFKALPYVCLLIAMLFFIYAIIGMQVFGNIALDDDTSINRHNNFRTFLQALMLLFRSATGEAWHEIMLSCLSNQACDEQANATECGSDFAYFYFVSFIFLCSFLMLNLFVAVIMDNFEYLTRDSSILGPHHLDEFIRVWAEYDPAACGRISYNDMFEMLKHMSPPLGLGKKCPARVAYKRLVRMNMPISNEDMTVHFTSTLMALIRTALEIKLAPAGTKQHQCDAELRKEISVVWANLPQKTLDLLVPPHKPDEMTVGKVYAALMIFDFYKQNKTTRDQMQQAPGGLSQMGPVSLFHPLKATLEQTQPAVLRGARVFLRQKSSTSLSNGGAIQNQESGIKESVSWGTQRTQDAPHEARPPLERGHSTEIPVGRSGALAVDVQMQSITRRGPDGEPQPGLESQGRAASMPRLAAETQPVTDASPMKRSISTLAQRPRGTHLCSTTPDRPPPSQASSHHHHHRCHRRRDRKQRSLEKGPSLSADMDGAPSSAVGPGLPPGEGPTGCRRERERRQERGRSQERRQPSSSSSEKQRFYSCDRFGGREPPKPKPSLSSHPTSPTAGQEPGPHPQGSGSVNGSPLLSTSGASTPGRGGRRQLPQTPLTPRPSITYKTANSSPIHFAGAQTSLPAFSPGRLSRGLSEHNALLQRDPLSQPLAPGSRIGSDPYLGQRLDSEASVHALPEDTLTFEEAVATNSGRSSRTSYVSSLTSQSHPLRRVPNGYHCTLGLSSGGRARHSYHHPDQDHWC
# T1 sequence (P54289 25-1103 partner): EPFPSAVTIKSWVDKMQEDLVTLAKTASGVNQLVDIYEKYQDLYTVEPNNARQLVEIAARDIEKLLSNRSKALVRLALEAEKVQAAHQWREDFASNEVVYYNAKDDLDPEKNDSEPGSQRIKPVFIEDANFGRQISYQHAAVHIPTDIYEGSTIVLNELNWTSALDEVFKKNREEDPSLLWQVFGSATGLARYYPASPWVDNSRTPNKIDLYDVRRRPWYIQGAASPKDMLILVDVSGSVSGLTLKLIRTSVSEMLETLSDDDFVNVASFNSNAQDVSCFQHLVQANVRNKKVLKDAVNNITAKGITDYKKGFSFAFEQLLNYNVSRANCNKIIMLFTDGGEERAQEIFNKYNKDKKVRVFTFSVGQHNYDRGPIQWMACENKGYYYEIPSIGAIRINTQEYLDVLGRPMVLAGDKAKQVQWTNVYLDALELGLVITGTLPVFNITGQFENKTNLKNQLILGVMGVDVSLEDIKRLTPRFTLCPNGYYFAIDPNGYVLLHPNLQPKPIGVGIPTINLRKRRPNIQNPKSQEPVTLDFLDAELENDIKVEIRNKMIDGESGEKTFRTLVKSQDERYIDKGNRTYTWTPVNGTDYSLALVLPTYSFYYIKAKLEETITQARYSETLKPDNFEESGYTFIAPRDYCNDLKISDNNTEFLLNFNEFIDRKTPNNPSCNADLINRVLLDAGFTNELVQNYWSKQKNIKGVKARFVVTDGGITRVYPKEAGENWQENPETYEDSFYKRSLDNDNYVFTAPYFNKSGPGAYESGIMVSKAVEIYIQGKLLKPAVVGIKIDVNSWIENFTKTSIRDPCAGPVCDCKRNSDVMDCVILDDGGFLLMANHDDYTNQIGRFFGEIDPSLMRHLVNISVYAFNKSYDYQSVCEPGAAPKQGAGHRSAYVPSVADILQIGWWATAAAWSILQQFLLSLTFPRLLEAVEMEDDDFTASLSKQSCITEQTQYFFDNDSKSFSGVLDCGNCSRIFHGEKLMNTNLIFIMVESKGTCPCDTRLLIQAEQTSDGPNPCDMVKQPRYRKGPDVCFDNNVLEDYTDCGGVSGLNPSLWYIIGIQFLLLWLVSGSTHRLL
# T1 sequence (P54284 whole entry partner): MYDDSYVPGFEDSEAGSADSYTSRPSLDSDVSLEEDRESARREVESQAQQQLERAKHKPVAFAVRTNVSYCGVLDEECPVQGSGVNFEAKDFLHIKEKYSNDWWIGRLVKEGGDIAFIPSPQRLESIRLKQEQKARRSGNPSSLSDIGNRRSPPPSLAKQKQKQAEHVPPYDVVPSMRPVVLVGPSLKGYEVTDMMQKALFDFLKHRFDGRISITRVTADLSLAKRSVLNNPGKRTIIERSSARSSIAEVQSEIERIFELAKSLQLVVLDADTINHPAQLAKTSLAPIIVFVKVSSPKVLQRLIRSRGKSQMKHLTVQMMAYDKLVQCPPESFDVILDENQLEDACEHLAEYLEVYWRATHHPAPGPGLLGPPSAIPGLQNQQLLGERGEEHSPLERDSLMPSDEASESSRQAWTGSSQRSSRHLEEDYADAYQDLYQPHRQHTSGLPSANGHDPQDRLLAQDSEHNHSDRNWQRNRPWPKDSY
inhibition at 10 µM,inhibition at 30 µM,IC50,SMILES
99.6%,102%,80.3 nM,"CC(C)(C)c1cc(C(=O)NC2(C(=O)NCc3ccc(F)cc3F)CCCCC2)cc(C(C)(C)C)c1 [Compound 50, 3,5-di-tert-butyl-N-(1-(2,4-difluorobenzylcarbamoyl)cyclohexyl)benzamide]"
89%,100%,,"CC(C)(C#N)c1ccc(C(=O)NC2(C(=O)NCc3cccc(C(F)(F)F)c3)Cc3ccccc3C2)cc1 [Compound 55, 2-(4-(2-cyanopropan-2-yl)benzamido)-N-(3-(trifluoromethyl)benzyl)-2,3-dihydro-1H-indene-2-carboxamide]"
84.4%,92.6%,321 nM,"CC(C)(C)c1cc(C(=O)NC2(C(=O)NCc3ccccc3)CCCCC2)cc(C(C)(C)C)n1 [Compound 56, N-(1-(benzylcarbamoyl)cyclohexyl)-2,6-di-tert-butylisonicotinamide]"
99.8%,101%,868 nM,"CC(C)(C)c1cc(CNC2(C(=O)NCc3ccccc3)CCCCC2)cc(C(C)(C)C)c1 [Compound 57, N-benzyl-1-(3,5-di-tert-butylbenzylamino)cyclohexanecarboxamide]"
74.8%,85.8%,,"CC(C)(C)c1cc(CNC2(C(=O)NCc3cccc(C(F)(F)F)c3)CCCCC2)cc(C(C)(C)C)c1 [Compound 60, 1-(3,5-di-tert-butylbenzylamino)-N-(3-(trifluoromethyl)benzyl)cyclohexanecarboxamide]"
18.7%,56.4%,,"N#CCc1cc(CC#N)cc(C(=O)NC2(C(=O)NCc3cccc(C(F)(F)F)c3)CCCCC2)c1 [Compound 61, 3,5-bis(cyanomethyl)-N-(1-(3-(trifluoromethyl)benzylcarbamoyl)cyclohexyl)benzamide]"
94.3%,88.1%,99.1 nM,"CC(C)(C)c1cc(C(=O)NC2(C(=O)NCc3cccc(C(F)(F)F)c3)CCCCC2)cc(C(C)(C)C)c1 [Compound 62, 3,5-di-tert-butyl-N-(1-(3-(trifluoromethyl)benzylcarbamoyl)cyclohexyl)benzamide]"
66.4%,82%,,"CC(C)(C)NC(=O)C(C)(C)c1cc(C(=O)NC2(C(=O)NCc3ccccc3)CCCCC2)cc(C(C)(C)C(=O)NC(C)(C)C)c1 [Compound 63, 2,2′-(5-(1-(benzylcarbamoyl)cyclohexylcarbamoyl)-1,3-phenylene)bis(N-tert-butyl-2-methylpropanamide)]"
104%,107%,123 nM,"CC(C)(C)c1cc(C(=O)NC2(C(=O)NCc3ccccc3)CCCCC2)cc(C(C)(C)C)c1O [Compound 65, N-(1-(benzylcarbamoyl)cyclohexyl)-3,5-di-tert-butyl-4-hydroxybenzamide]"
,,960 nM,"CC(C)(C)c1cc(C(=O)NC2(C(=O)N3CCCC3)CCCCC2)cc(C(C)(C)C)n1 [Compound 66, 2,6-di-tert-butyl-N-(1-(pyrrolidine-1-carbonyl)cyclohexyl)isonicotinamide]"
98.4%,94%,64.9 nM,"Cc1cc(CNC(=O)C2(NC(=O)c3cc(C(C)(C)C)cc(C(C)(C)C)c3)CCCCC2)nn1C [Compound 68, 3,5-di-tert-butyl-N-(1-((1,5-dimethyl-1H-pyrazol-3-yl)methylcarbamoyl)cyclohexyl)benzamide]"
88.3%,95.3%,538 nM,"CC(C)(C)c1cc(C(=O)NC2(C(=O)N3CCN(Cc4ccccc4)CC3)CCCCC2)cc(C(C)(C)C)n1 [Compound 69, N-(1-(4-benzylpiperazine-1-carbonyl)cyclohexyl)-2,6-di-tert-butylisonicotinamide]"
89.8%,96.3%,27.4 nM,"CC(C)(C)c1cc(C(=O)NC2(C(=O)NCc3ccccc3)CCCCC2)cc(C(C)(C)C#N)c1 [Compound 70, N-(1-(benzylcarbamoyl)cyclohexyl)-3-tert-butyl-5-(2-cyanopropan-2-yl)benzamide]"
98.9%,106%,55.8 nM,"COc1ccc(C(=O)NC2(C(=O)NCc3cc(C(C)(C)C)c(OC)c(C(C)(C)C)c3)CCCCC2)cc1 [Compound 74, N-(1-(3,5-di-tert-butyl-4-methoxybenzylcarbamoyl)cyclohexyl)-4-methoxybenzamide]"
93.6%,101%,545 nM,"CC(C)(C)c1cc(C(=O)NC2(C(=O)Nc3ccncc3)CCCCC2)cc(C(C)(C)C)c1 [Compound 75, 3,5-di-tert-butyl-N-(1-(pyridin-4-ylcarbamoyl)cyclohexyl)benzamide]"
80.5%,87.8%,,"CC(C)(C)NC(=O)C(C)(C)c1cc(C(=O)NC2(C(=O)NCc3cccc(C(F)(F)F)c3)CCCCC2)cc(C(C)(C)C(=O)NC(C)(C)C)c1 [Compound 76, 2,2′-(5-(1-(3-(trifluoromethyl)benzylcarbamoyl)cyclohexylcarbamoyl)-1,3-phenylene)bis(N-tert-butyl-2-methylpropanamide)]"

# Further lines, the compound ahead of its results:
SMILES,inhibition at 10 µM,inhibition at 30 µM,IC50
"Cc1cc(CNC(=O)C2(NC(=O)c3cc(C(C)(C)C)cc(C(C)(C)C)c3)CCCCC2)no1 [Compound 51, 3,5-di-tert-butyl-N-(1-((5-methylisoxazol-3-yl)methylcarbamoyl)cyclohexyl)benzamide]",106%,106%,63.5 nM
"CC(C)(C)c1cc(C(=O)NC2(C(=O)NCc3ccccc3)Cc3ccccc3C2)cc(C(C)(C)C)n1 [Compound 52, N-(2-(benzylcarbamoyl)-2,3-dihydro-1H-inden-2-yl)-2,6-di-tert-butylisonicotinamide]",82.2%,91.3%,893 nM
"CC(C)(C)c1cc(C(=O)NC2(C(=O)NCc3cccc(C(F)(F)F)c3)Cc3ccccc3C2)cc(C(C)(C)C)c1 [Compound 53, 2-(3,5-di-tert-butylbenzamido)-N-(3-(trifluoromethyl)benzyl)-2,3-dihydro-1H-indene-2-carboxamide]",56.3%,74.3%,
"CC(C)(C)c1cc(C(=O)NC2(C(=O)NCc3cccc(C(F)(F)F)c3)Cc3ccccc3C2)cc(C(C)(C)C)n1 [Compound 54, 2,6-di-tert-butyl-N-(2-(3-(trifluoromethyl)benzylcarbamoyl)-2,3-dihydro-1H-inden-2-yl)isonicotinamide]",46.2%,68.4%,
"CC(C)(C)OC(=O)N1CCC(NC(=O)c2cc(C(C)(C)C)nc(C(C)(C)C)c2)(C(=O)O)CC1 [Compound 58, 1-(tert-butoxycarbonyl)-4-(2,6-di-tert-butylisonicotinamido)piperidine-4-carboxylic acid]",37.6%,77.9%,
"CC(C)(C)OC(=O)N1CCC(NC(=O)c2cc(C(C)(C)C)nc(C(C)(C)C)c2)(C(=O)NCc2ccccc2)CC1 [Compound 59, tert-butyl 4-(benzylcarbamoyl)-4-(2,6-di-tert-butylisonicotinamido)piperidine-1-carboxylate]",50.2%,62.5%,
"CC(C)(C)c1cc(C(=O)NC2(C(=O)NCc3ccccc3)CCNCC2)cc(C(C)(C)C)n1 [Compound 64, N-(4-(benzylcarbamoyl)piperidin-4-yl)-2,6-di-tert-butylisonicotinamide]",69.5%,104%,
"COc1ccc(CNC(=O)C2(NC(=O)c3cc(C(C)(C)C)c(O)c(C(C)(C)C)c3)CCCCC2)cc1 [Compound 67, 3,5-di-tert-butyl-4-hydroxy-N-(1-(4-methoxybenzylcarbamoyl)cyclohexyl)benzamide]",94.4%,98.6%,20.6 nM
"COc1c(C(C)(C)C)cc(CNC2(C(=O)NCc3cccc(C(F)(F)F)c3)CCCCC2)cc1C(C)(C)C [Compound 71, 1-(3,5-di-tert-butyl-4-methoxybenzylamino)-N-(3-(trifluoromethyl)benzyl)cyclohexanecarboxamide]",77.3%,81.1%,477 nM
"COc1c(C(C)(C)C)cc(CNC2(C(=O)NCc3ccccc3)CCCCC2)cc1C(C)(C)C [Compound 72, N-benzyl-1-(3,5-di-tert-butyl-4-methoxybenzylamino)cyclohexanecarboxamide]",97.8%,97.4%,145 nM
"COc1c(C(C)(C)C)cc(CNC(=O)C2(NC(=O)c3cccc(C(F)(F)F)c3)CCCCC2)cc1C(C)(C)C [Compound 73, N-(1-(3,5-di-tert-butyl-4-methoxybenzylcarbamoyl)cyclohexyl)-3-(trifluoromethyl)benzamide]",95.2%,97.7%,124 nM
